Measurements taken from ChEMBL document CHEMBL2203257 (Bioorg Med Chem Lett, 2012).

Key:
[1] = target: Phosphatidylinositol 4,5-bisphosphate 3-kinase catalytic subunit gamma isoform (Homo sapiens, UniProt P48736); assay: Inhibition of PI3Kgamma by kinobeads assay
[2] = target: Phosphatidylinositol 4,5-bisphosphate 3-kinase catalytic subunit alpha isoform (Homo sapiens, UniProt P42336); assay: Inhibition of PI3Kalpha assessed as change in pIC50 by kinobeads assay
[3] = target: Phosphatidylinositol 4,5-bisphosphate 3-kinase catalytic subunit beta isoform (Homo sapiens, UniProt P42338); assay: Inhibition of PI3Kbeta assessed as change in pIC50 by kinobeads assay
[4] = target: T1, Phosphatidylinositol 4,5-bisphosphate 3-kinase catalytic subunit delta isoform (Homo sapiens, UniProt O00329); assay: Inhibition of PI3Kdelta assessed as change in pIC50 by kinobeads assay
T1 sequence (O00329 whole entry): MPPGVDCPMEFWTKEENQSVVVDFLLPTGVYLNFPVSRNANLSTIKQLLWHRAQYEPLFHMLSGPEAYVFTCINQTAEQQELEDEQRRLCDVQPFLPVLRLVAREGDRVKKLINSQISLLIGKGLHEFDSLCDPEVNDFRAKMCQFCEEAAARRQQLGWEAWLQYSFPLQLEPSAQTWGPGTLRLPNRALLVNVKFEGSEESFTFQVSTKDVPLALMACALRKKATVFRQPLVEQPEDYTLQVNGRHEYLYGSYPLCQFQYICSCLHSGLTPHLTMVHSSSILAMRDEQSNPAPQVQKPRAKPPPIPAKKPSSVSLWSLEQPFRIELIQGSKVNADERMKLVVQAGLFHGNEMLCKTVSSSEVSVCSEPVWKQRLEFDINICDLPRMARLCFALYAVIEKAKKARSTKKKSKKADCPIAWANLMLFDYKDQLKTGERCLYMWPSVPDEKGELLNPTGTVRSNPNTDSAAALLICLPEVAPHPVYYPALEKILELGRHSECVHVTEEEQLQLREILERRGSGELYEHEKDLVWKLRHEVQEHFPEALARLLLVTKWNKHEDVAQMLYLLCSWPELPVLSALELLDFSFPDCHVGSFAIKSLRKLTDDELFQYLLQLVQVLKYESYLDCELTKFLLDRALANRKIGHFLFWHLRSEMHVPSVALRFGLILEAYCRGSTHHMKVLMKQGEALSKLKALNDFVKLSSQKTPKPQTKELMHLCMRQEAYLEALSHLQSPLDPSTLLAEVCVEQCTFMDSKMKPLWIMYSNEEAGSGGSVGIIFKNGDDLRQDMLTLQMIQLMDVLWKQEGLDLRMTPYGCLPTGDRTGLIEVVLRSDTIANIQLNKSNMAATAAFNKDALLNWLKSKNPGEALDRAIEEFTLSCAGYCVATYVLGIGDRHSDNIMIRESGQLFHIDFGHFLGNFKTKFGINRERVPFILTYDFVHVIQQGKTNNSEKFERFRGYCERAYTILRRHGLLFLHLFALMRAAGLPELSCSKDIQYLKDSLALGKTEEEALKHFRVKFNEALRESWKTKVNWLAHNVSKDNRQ

[5] = test system: Mus musculus; assay: Antiinflammatory activity in mouse IL-8-induced air-pouch model assessed as inhibition of granulocyte migration at 3 mg/kg, po; parameters: scale not given: the % may be the effect or the level left
[6] = target: Phosphatidylinositol 4,5-bisphosphate 3-kinase catalytic subunit delta isoform/gamma isoform (Homo sapiens, UniProt P48736+O00329); assay: Inhibition of PI3Kgamma/delta by neutrophil migration assay
[7] = test system: Hepatocyte; assay: Metabolic stability in human hepatocytes measured per gram of tissue; assay type: ADME, cell-based
[8] = test system: Hepatocyte; assay: Metabolic stability in rat hepatocytes measured per gram of tissue; assay type: ADME, cell-based
[9] = test system: Hepatocyte; assay: Metabolic stability in mouse hepatocytes measured per gram of tissue; assay type: ADME, cell-based
[10] = test system: Liver microsomes; assay: Volume of distribution at steady state […] at 5 mg/kg, po; assay type: ADME, organism-based; parameters: dose 5 mg/kg, route oral
[11] = Half life in rat […] at 5 mg/kg, po; assay type: ADME, organism-based; parameters: dose 5 mg/kg, route oral
[12] = Cmax in rat […] at 5 mg/kg, po; assay type: ADME, organism-based; parameters: dose 5 mg/kg, route oral
[13] = AUC in rat […] at 5 mg/kg, po; assay type: ADME, organism-based; parameters: dose 5 mg/kg, route oral
[14] = Oral bioavailability in Wistar rat at 5 mg/kg; details: in vivo

Chain of Phosphatidylinositol 4,5-bisphosphate 3-kinase catalytic subunit gamma isoform (P48736 whole entry, canonical isoform): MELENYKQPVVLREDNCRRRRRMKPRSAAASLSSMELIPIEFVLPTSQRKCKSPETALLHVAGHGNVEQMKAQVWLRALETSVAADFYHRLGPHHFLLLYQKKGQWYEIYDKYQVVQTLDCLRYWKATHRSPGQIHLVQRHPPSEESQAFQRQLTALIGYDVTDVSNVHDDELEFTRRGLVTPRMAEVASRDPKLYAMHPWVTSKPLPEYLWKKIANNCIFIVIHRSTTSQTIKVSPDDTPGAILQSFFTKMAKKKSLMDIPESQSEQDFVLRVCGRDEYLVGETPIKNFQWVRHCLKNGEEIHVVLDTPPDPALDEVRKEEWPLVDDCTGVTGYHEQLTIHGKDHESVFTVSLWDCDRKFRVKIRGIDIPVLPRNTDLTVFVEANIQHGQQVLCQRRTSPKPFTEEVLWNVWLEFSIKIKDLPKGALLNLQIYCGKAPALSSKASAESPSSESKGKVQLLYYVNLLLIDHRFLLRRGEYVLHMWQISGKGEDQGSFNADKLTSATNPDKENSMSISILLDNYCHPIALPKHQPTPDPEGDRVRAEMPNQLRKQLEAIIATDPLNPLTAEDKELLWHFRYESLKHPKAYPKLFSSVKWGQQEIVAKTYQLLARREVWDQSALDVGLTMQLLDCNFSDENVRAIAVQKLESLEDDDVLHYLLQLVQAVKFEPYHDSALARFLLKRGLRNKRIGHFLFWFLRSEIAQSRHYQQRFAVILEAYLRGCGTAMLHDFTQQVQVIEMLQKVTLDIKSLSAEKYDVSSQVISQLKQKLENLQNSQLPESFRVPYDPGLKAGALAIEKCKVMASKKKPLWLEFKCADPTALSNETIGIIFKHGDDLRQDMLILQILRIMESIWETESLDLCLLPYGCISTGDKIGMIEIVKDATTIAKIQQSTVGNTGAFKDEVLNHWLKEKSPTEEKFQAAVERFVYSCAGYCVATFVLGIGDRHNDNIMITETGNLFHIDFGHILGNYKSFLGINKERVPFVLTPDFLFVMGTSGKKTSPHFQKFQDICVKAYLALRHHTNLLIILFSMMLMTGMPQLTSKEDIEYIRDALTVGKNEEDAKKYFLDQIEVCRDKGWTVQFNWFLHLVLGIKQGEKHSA
Chain of Phosphatidylinositol 4,5-bisphosphate 3-kinase catalytic subunit alpha isoform (P42336 whole entry, canonical isoform): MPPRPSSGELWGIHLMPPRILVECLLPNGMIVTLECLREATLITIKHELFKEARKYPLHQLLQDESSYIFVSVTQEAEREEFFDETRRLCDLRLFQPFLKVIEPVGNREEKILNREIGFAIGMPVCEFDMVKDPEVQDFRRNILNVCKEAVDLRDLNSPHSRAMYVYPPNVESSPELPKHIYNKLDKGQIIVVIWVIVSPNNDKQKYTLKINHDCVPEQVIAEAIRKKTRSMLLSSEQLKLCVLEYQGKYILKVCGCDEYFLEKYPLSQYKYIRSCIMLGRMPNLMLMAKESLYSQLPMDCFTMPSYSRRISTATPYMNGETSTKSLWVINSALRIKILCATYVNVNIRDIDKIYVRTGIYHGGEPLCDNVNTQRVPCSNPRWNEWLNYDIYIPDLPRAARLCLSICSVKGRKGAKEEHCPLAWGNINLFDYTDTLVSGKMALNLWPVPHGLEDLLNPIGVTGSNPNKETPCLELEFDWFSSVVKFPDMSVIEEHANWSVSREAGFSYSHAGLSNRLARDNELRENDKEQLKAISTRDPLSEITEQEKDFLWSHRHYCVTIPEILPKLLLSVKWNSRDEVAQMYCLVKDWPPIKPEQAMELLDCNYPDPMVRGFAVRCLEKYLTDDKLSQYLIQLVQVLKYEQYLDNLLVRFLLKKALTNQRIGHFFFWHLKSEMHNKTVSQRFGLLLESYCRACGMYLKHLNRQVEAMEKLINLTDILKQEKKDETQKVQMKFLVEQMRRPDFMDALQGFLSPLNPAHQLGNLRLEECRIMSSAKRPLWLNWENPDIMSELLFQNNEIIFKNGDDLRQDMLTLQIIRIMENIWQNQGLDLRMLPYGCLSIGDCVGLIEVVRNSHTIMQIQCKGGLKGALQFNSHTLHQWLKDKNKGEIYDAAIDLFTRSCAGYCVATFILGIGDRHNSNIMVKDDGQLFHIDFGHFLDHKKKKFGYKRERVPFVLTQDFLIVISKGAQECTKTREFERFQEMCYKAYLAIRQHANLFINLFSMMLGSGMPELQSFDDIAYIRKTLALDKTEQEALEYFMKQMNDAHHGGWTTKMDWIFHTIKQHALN
Chain of Phosphatidylinositol 4,5-bisphosphate 3-kinase catalytic subunit beta isoform (P42338 whole entry, canonical isoform): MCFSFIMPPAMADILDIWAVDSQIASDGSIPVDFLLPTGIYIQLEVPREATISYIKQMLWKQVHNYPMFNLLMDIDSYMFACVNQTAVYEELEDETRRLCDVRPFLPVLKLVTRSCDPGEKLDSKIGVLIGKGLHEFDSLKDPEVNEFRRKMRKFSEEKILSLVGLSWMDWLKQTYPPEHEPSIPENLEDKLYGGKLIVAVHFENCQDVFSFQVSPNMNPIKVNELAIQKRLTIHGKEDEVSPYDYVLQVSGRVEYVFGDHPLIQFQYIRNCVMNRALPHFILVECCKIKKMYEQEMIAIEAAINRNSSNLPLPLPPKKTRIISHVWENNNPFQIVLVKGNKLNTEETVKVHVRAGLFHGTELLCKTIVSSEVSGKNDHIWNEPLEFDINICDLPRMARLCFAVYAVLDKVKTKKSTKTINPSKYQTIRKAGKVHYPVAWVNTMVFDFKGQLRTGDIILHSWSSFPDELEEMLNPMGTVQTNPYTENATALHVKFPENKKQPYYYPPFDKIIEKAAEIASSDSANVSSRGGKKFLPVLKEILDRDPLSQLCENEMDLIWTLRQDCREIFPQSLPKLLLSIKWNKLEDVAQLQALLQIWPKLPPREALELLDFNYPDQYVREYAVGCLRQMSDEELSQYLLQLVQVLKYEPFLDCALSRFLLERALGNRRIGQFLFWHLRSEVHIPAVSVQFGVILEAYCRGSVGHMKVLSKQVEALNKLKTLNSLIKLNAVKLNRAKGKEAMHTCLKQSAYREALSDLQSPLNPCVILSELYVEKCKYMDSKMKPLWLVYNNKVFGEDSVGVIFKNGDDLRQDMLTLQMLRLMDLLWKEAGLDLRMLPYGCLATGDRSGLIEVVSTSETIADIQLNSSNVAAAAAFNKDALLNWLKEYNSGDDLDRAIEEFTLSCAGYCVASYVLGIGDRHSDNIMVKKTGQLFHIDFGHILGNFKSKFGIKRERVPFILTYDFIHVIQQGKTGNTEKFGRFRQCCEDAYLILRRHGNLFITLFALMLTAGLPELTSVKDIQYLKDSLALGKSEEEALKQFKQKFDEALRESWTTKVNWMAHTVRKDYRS

| SMILES | IC50 [1] | pIC50 [6] | further results |
| --- | --- | --- | --- |
| CC(C)(C)NS(=O)(=O)c1cncc(-c2cc(F)c3nc(N)nn3c2)c1 | 0.0251 µM | – | IC50 [2]: > 10 µM; IC50 [3]: 1 µM; IC50 [4]: 7.94 µM; Activity [5]: 29% |
| CS(=O)(=O)c1cncc(-c2ccn3nc(N)nc3c2)c1 | 0.0794 µM | – | – |
| CCCNS(=O)(=O)c1cncc(-c2ccn3nc(N)nc3c2)c1 | 0.0316 µM | 6.2 | IC50 [4]: < 20000 µM |
| CC(C)NS(=O)(=O)c1cncc(-c2ccn3nc(N)nc3c2)c1 | 0.0251 µM | 6.3 | – |
| Nc1nc2cc(-c3cncc(S(=O)(=O)Nc4ccccc4)c3)ccn2n1 | 0.0398 µM | 5 | – |
| Nc1nc2cc(-c3cncc(S(=O)(=O)NCc4ccccc4)c3)ccn2n1 | 0.1 µM | – | – |
| CC1(C)CCN1S(=O)(=O)c1cncc(-c2ccn3nc(N)nc3c2)c1 | 0.0251 µM | 5.7 | – |
| CNS(=O)(=O)c1cncc(-c2ccn3nc(N)nc3c2)c1 | 0.0251 µM | 6.3 | Vdss [10]: 2.2 L/kg; half-life [11]: 1.2 h; Cmax [12]: 5 µM; AUC [13]: 6.7 µM·h; bioavailability [14]: 56% |

These reach a lower IC50 [1]. Values come first.

| IC50 [1] | pIC50 [6] | SMILES | further results |
| --- | --- | --- | --- |
| 0.0158 µM | 6.1 | CC(C)(C)NS(=O)(=O)c1cncc(-c2cc(F)n3nc(N)nc3c2)c1 | CLint [7]: 2.5 mL/min/g; CLint [8]: 7.5 mL/min/g; CLint [9]: 36.1 mL/min/g |
| 0.02 µM | 5.9 | Nc1nc2cc(-c3cncc(S(=O)(=O)NCC(F)(F)F)c3)ccn2n1 | – |
| 0.02 µM | 5.6 | CC(C)(NS(=O)(=O)c1cncc(-c2ccn3nc(N)nc3c2)c1)C(F)(F)F | – |
| 0.00794 µM | 5.9 | CCN(CC)S(=O)(=O)c1cncc(-c2ccn3nc(N)nc3c2)c1 | – |
| 0.02 µM | 6.1 | Nc1nc2cc(-c3cncc(S(N)(=O)=O)c3)ccn2n1 | – |
